Source: US20180112006A1, “AGENTS, SYSTEMS AND METHODS FOR TREATING CANCER” (THE GENERAL HOSPITAL CORPORATION, priority 2015, published 2018)

What was measured:
[1] = system: NSC-TR-TK-GF1 cells; assay: Ganciclovir elimination of NSC-TR-TK-GF1 in vitro; type: cell-based, mouse; details: 10 mg/ml GCV
Procedure: (FIG. 11A) Representative phase and fluorescent images of NSC-TR-TK-GF1 in the presence or absence of 10 mg/ml GCV. Plot showing the Fluc activity of transduced cells in vitro. (FIG. 11B) Viability of MBr-FmC cells co-cultured with modified NSC at 1:1 ratio as measured by Fluc activity in vitro. The effects of NSC engineered with TK or TK-TR are shown. (FIG. 11C) Upper, outline of the experiment. Representative fluorescent images of metastatic MBr-RmC tumors in the mouse brain with or without NSC-TR-TK-GF1 administration to show post-tumor treatment (scale bar=100 μm).
To translate NSC-S-TRAIL therapy for brain metastasis into clinics, it is critical to follow the long-term fate of NSCs post-tumor treatment and ultimately, selectively eradicate therapeutic NSCs to avoid continuous access of therapeutic agent to normal brain tissue and to circumvent any malignant transformation of NSCs. To address this, NSC-S-TRAIL expressing cells were engineered to further express herpes simplex virus thymidine kinase (HSV-TK) and GFP-Fluc (GF1) (NSC-TR-TK-GF1) and tested for efficacy of thymidine kinase suicide therapy in vitro. […] Further, the efficacy of ganciclovir to eradicate NSCs in non-tumor bearing brain was tested. […] Next, the eradication of therapeutic NSCs post-tumor treatment in vivo was tested. NSC-TR-TK-GF1 expressing cells were intracranially injected into MBr-RmC tumor-bearing brains.

[2] = system: NSC-TR-TK-GF1 cells; assay: Ganciclovir eradication of NSC-TR-TK-GF1 in mouse brains, Fluc bioluminescence imaging; type: in vivo, mice; details: for eradication of NSCs in non-tumor bearing brain: ganciclovir 75 mg/kg i.p. daily
Procedure: Two hundred thousand NSC-TR-TK-GF1 cells were either intracranially or intracarotidly injected in nude mice. Seven days after intracranial injection, or 3 days after intracarotid injection, daily PBS or ganciclovir (75 mg/kg body weight) were administrated via intraperitoneal (i.p.) injection for 2 weeks. NSC fate was assessed by bioluminescence imaging at various time points. To assess the eradication of therapeutic NSC post-tumor treatment, MBr-RmC cells (50 000 cells/mouse) were intracranially injected in nude mice and tumor-bearing mice were injected intratumorally with NSC-TR-TK-GF1 (50 000 cells/mouse) in the mouse brain. Daily PBS or ganciclovir were administrated via intraperitoneal injection after 4 days of NSC injection and the fate of NSCs was assessed by bioluminescence imaging at different time points.

[3] = system: hNSC-TR-TK; assay: Ganciclovir eradication of modified human NSCs in vitro; type: cell-based; parameters: dose or concentration left out as unconfirmed
Procedure: (§1) (FIG. 6A) Plot showing the viability of MBr-FmC cells co-cultured with engineered human NSCs expressing TRAIL (TR), both TRAIL and HSV-TK (TR-TK) or GFP as measured by Fluc activity in vitro. (FIG. 6B) Plot showing the viability of modified human NSCs treated with ganciclovir (10 mg/ml). (FIG. 6C) Plot showing the viability of MBr-FmC cells co-cultured with engineered human MSC expressing TRAIL (TR), both TRAIL and HSV-TK (TR-TK) or GFP. (FIG. 6D) Plot showing the viability of modified human MSCs treated with ganciclovir (10 mg/ml).
(§2) To make the therapeutic strategy more clinically relevant, human NSCs and human MSCs were used and the efficacy of the TRAIL/thymidine kinase system on metastatic tumor cells was tested. Human NSCs and MSCs were engineered to express secreted TRAIL (hNSC-TR/hMSC-TR) or co-express secreted TRAIL and HSV-TK (hNSC-TR-TK/hMSC-TR-TK), and established co-cultures of MBr-FmC with different proportions of modified human NSCs and MSCs.

[4] = system: hMSC-TR-TK; assay: Ganciclovir eradication of modified human MSCs in vitro; type: cell-based; parameters: dose or concentration left out as unconfirmed
Procedure: as §1, §2

[5] = system: metastatic MBr cells; assay: TRAIL killing of tumor cells versus normal cells; type: cell-based

| Compound | elimination of modified NSC in vitro (Fluc, GFP) [1] | eradication of therapeutic NSCs post-tumor treatment ([2]; MBr-RmC tumor-bearing brains, vs PBS) | eradication of NSCs in non-tumor bearing brain ([2]; NSCs implanted via intracranial route) | eradication of NSCs in non-tumor bearing brain ([2]; NSCs via intracarotid route) | eradication of hNSC-TR-TK in vitro [3] | eradication of hMSC-TR-TK in vitro [4] | killing of tumor cells versus normal cells [5] |
| --- | --- | --- | --- | --- | --- | --- | --- |
| Nc1nc(O)c2ncn(COC(CO)CO)c2n1 [ganciclovir] | eliminated | eradication of therapeutic NSC-TR-TK-GF1 | substantially eradicated | substantially eradicated | successfully eradicated | successfully eradicated | – |
| TRAIL | – | – | – | – | – | – | specifically killed the tumor cells instead of the normal cells |
